This is an account of results in paper PMC5506877 (Heliyon, 2017).

As a reminder, the IC50 is the concentration at which inhibition is half-maximal. Read a high IC50 as a need for much substance. As a reminder, the logD is lipophilicity at a set pH, counting ionised and neutral species.

Values joined by “and” are separate entries in the source; they are usually repeats but may differ in a detail not shown here. Equal entries are not always repeated.

Data set [1] in a line: human ADME study: metabolite profiling in plasma, urine and faeces after single oral [14C]alectinib. In kind it is in vivo. As for the experimental part:
Human plasma for protein binding was obtained from three healthy male volunteers. All participants provided written informed consent prior to study related procedures. The protocol of human ADME study was approved by the Independent Ethics Committee of the Stichting Beoordeling Ethiek Bio-Medisch Onderzoek (Assen, The Netherlands), and that of protein binding study was approved by Chugai IRB.
Plasma samples were pooled at 4 h and 6 h (4 h + 6 h), and 8 h and 12 h (8 h +12 h) across the six subjects. An 18-mL aliquot of pooled plasma was extracted with the same volume of acetonitrile twice, and then the extract was lyophilized. The resulting residue was further extracted with 3 mL of acetonitrile/water (9:1, v/v) twice and lyophilized again. The resulting residue was reconstituted with 900 μL of methanol/water (7:3, v/v) to obtain the supernatant as an HPLC sample in which plasma was 20-fold concentrated.
Urine samples were pooled at 0–24 h, and at 24–72 h across the six subjects. A 16-mL aliquot of pooled urine was concentrated 20-fold using the same process for plasma.
Faecal samples were pooled at 0–48 h, 48–96 h, and 96–168 h across the six subjects. One to two weight equivalents of water was added to the faecal samples and the samples were homogenized and mixed with the same volume of acetonitrile. After following the same procedure as for plasma, the residue was reconstituted with methanol/water (7:3, v/v) or dimethyl sulfoxide (DMSO) and centrifuged, and the faecal sample was concentrated 5-fold for use in analysis.
Alkaline Conditions: For metabolite profiling, the extracted samples from plasma, urine, and faeces were subjected to HPLC under alkaline conditions using XBridge™ Shield RP18, 3.5 μm, 4.6 × 150 mm (Waters), and a linear stepwise gradient with solvent A (consisting of water/30%trimethylamine at 100:0.1, v/v) and solvent B (consisting of acetonitrile/30%trimethylamine at 100:0.1, v/v), and a flow rate of 1 mL/min. Solvent B in the gradient started at 1% and then changed as follows: 30% (2 min), 60% (29 min), 98% (29.1 min), 98% (32 min), 1% (32.1 min), and 1% (40 min). The UV wavelength was set at 335 nm. […]
Plasma and Urine: To profile metabolites, 150 μL of the same HPLC sample of plasma or 100 μL of the same HPLC sample of urine was injected 3 separate time, and the eluates collected at 15-second intervals were combined to be measured by a liquid scintillation counter (LSC) (Tri-Carb 3100TR, PerkinElmer, Inc.) at a low level count mode for 10 min.
Faeces: A radiodetector (Radiomatic 625TR, PerkinElmer, Inc.) was used, and the area percentage of each radioactive peak on the radiochromatograms was calculated with analysis software (FLO-ONE Ver. 3.65, PerkinElmer, Inc.). […]

The conditions of data set [2]: cited from earlier work.
In data set [3] the target is ALK (Homo sapiens, UniProt Q9UM73). Kind of data set: inhibitory activity against ALK, cell-free TR-FRET kinase assay. It is filed as biochemical. The note with it: 90 min at 30 °C, geometric mean of triplicates. As for the experimental part: Solutions of test articles, substrate/ATP (2 μmol/L substrate peptide-0.2 mol/L HEPES buffer containing 60 μmol/L ATP, 20 mmol/L MgCl2, 0.2 mmol/L DTT, and 40 μmol/L Na3VO4) and the enzyme (final concentration of 200 ng/mL) were mixed in a clear-bottomed 384-well black plate and incubated for 90 min at 30 °C. After adding stop solution (100 mmol/L EDTA-0.1 mol/L HEPES buffer), TR-FRET reagent (2.5 nmol/L of LANCE® Eu-W1024-labeled anti-phosphotyrosine (PT66) and 6.25 μg/mL of Streptavidine SureLight® APC) was added and the time-resolved fluorescence was measured by EnVision HTS (Model 2104, PerkinElmer).
On the technique in general: In TR-FRET formats the signal depends on donor and acceptor labels being close together.

The test system of data set [4] is NCI-H2228 NSCLC cell line that harbours EML4-ALK fusion. In words: cell growth inhibition, CellTiter-Glo, NCI-H2228 spheroid culture. It is filed as cell-based. To be noted: for IC50: Homo sapiens. In general terms: In ATP-based viability assays light output follows the ATP content of the culture.
Protocol: Then test article solutions were added and the cell viability was measured after a 120-h incubation in a CO2 incubator. The luminescence was measured by EnVision HTS and the cell viability was calculated.
Data set [5] can be described thus: plasma protein binding by equilibrium dialysis. In kind it is in vitro ADME, human. The note with it: for recovery at 24 h: pooled human plasma dialysed against PBS, human plasma / PBS after dialysis, read-out: recovery in the plasma protein binding (equilibrium dialysis) experiment. The procedure:
Plasma was obtained by centrifugation (4 °C, 1600 g, 10 min, CF7D2, Hitachi Koki) of EDTA‐treated blood from three healthy male volunteers and was then pooled. […] Samples for M4 were mixed with deuterated M4 as an internal standard and acetonitrile/methanol (1:1, v/v). After centrifugation, the supernatant was injected into an LC/ESI-MS/MS system consisting of ACQUITY Ultra Performance LC (Waters) and API 4000 (AB Sciex) in positive-ion multiple-reaction monitoring (MRM) mode to measure M4 (Q1: m/z 457 and Q3: m/z 396) concentration. Chromatography was performed using ACQUITY UPLC BEH Phenyl (2.1 mm I.D. × 50 mm, 1.7 μm, Waters) at 60 °C; MP A: water/98% formic acid (1000/1, v/v), MP B: methanol/98% formic acid (1000/1, v/v), with a flow rate of 0.7 mL/min and a gradient program as follows: (time, % MP B): 0 min, 40%; 0.3 min, 40%; 1.9 min, 45%; 1.91 min, 90%; 2.20 min, 90%; 2.21 min, 40%; 2.70 min, stop. For the protein binding of M4, 1–5000 ng/mL in human plasma, and 0.5–2500 ng/mL in PBS were calibrated.
The recovery was calculated by the following equation.
Protein binding was calculated by the following equation.
Protein binding = (1−Cf/Cp) × 100 (%)
Where Cf and Cp represent the concentration in PBS and in plasma, respectively.
(In general: Equilibrium dialysis compares concentrations on both sides of a semipermeable membrane.)

For data set [6] the following is noted: at pH 3.575; cited from earlier work.
The mark [7] stands for this setting: human, single oral 600 mg/67 μCi [14C]alectinib, pooled across n = 6, ND: Not detected.
The mark [8] stands for this setting: NCI-H2228 cells, 120-h incubation, geometric mean of triplicates.
Where [9] appears, read: male, human, plasma, human plasma, 37 °C 24 h dialysis, mean ± SD of triplicates.

Sequence of ALK (Q9UM73 19-1620): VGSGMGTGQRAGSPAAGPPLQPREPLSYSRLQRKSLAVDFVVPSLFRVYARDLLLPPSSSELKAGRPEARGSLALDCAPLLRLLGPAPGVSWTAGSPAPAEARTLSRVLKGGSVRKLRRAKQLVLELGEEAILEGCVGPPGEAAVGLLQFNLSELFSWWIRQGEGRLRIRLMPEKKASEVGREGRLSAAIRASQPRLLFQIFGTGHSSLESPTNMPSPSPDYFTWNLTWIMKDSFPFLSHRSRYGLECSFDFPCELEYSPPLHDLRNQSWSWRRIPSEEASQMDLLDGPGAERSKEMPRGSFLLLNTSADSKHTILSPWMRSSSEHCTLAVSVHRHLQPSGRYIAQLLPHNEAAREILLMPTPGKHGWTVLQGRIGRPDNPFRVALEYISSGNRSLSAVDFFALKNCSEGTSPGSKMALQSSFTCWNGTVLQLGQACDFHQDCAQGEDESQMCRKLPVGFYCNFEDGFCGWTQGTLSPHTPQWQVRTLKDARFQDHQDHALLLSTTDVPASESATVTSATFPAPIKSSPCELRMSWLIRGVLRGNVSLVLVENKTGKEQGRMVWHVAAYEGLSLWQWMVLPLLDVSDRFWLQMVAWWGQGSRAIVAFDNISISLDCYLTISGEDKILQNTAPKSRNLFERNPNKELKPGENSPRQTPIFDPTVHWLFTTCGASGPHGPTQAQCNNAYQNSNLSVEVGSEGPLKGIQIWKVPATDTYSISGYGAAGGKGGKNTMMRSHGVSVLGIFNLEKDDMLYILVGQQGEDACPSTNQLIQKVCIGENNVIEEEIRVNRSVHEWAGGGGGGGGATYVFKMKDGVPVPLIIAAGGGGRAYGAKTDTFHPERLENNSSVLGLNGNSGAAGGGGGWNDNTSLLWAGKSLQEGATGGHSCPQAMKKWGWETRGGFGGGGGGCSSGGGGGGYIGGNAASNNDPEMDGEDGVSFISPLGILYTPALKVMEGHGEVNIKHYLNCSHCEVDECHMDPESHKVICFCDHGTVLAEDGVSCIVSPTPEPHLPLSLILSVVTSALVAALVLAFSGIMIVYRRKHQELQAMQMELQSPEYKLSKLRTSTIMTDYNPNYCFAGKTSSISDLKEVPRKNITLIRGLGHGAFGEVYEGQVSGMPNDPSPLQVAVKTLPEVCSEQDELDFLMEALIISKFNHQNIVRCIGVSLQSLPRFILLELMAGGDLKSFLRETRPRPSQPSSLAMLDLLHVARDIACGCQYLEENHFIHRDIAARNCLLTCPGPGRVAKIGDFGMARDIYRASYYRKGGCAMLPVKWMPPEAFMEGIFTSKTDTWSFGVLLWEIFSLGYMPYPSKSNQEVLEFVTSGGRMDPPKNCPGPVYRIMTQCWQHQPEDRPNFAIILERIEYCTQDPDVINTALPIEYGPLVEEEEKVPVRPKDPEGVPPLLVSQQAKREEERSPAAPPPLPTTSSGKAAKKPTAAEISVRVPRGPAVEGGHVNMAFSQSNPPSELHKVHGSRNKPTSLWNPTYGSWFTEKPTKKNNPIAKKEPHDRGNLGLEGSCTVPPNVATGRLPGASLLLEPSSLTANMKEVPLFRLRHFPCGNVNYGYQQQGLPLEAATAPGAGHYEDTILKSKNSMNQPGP

Regarding `CCc1cc2c(cc1N1CCC(NCCOCC(=O)O)CC1)C(C)(C)c1[nH]c3cc(C#N)ccc3c1C2=O` [M1a], the “ratio of M1a peak to M1b peak, radiochromatogram” value in data set [1] (human faeces 48–96 h, fractionated M1, acidic HPLC conditions, radioactivity) was 1 to 9 and 1/9. Moreover, the “ratio of M1a to M1b, extracted ion chromatogram (XIC)” value in data set [1] (human faeces 48–96 h, fractionated M1, acidic conditions, [M + H]+) was 1 to 3 and 1/3. Besides, the “ratio of M1a to M1b in the XIC, plasma” value in data set [1] (human plasma, LC-MS acidic conditions) is reported as 1/8. In data set [1] (human urine, LC-MS acidic conditions), the “ratio of M1a to M1b in the XIC, urine” value was 1/10.
Consider `CCc1cc2c(cc1N1CCC(N)CC1)C(C)(C)c1[nH]c3cc(C#N)ccc3c1C2=O` [M6, 8-(4-amino-1-piperidyl)-9-ethyl-6,6-dimethyl-11-oxo-5H-benzo[b]carbazole-3-carbonitrile], for which the “Percentage of drug related compound in analytical sample, Faeces 96–168 h” value in data set [2] (setting [7]) is recorded as 5.6%.
Molecule `CCc1cc2c(cc1N1CCC(NCCO)CC1)C(C)(C)c1[nH]c3cc(C#N)ccc3c1C2=O` [M4, 9-ethyl-8-[4-(2-hydroxyethylamino)-1-piperidyl]-6,6-dimethyl-11-oxo-5H-benzo[b]carbazole-3-carbonitrile] gave an IC50 in data set [3] of 1.2 nM. The IC50 in data set [4] (setting [8]) turned out to be 37 nM. The same molecule had a fraction unbound at 24 h, 0.3 μg/mL in data set [5] (male, human, plasma, human plasma, 0.3 μg/mL, 37 °C 24 h dialysis, mean ± SD of triplicates) of 0.009. In data set [5] (setting [9]), this molecule showed a fraction unbound at 24 h, 1 μg/mL of 0.005. The molecule further had a fraction unbound at 24 h, 2 μg/mL in data set [5] (male, human, plasma, human plasma, 2 μg/mL, 37 °C 24 h dialysis, mean ± SD of triplicates) of 0.005. The fraction unbound at 24 h in data set [5] (male, human, plasma, human plasma, all concentrations investigated, read-out: human plasma protein binding over the range of concentration investigated) is under 0.01. For the same molecule, the recovery at 24 h in data set [5] (male) was 82.7 ± 2.5%. Besides, the “AUC ratio for the percentage of total drug-related systemic exposure” value in data set [2] (human plasma, LC/MS drug concentration vs total radioactivity) is 15%. Besides, the “amount of metabolite in faecal samples, % of the dose administered” value in data set [2] (human, faeces, single oral [14C]alectinib) was 5.8%. Further, in data set [2] (setting [7]), the “Percentage of drug related compound in analytical sample, Faeces 0–48 h” value was 1.1%; the “Percentage of drug related compound in analytical sample, Faeces 48–96 h” value is 11.0%; the “Percentage of drug related compound in analytical sample, Faeces 96–168 h” value is on record as 37.3%; the “Percentage of drug related compound in analytical sample, Plasma 4 h + 6 h” value is listed as 7.0%. In data set [2] (setting [7]), the “Percentage of drug related compound in analytical sample, Plasma 8 h + 12 h” value is 9.9%; the “Percentage of drug related compound in analytical sample, Urine 0–24 h” value is given as 9.0%; the “Percentage of drug related compound in analytical sample, Urine 24–72 h” value is 24.2%.
With `CCc1cc2c(cc1N1CCC(N(CCO)CC(=O)O)CC1)C(C)(C)c1[nH]c3cc(C#N)ccc3c1C2=O` [M1b], in data set [3], it took 1.6 nM to reach half-maximal inhibition (IC50). Further, in data set [4] (setting [8]), the half-maximal inhibitory concentration (IC50) is 320 nM and the “IC50 Cell growth” value is listed as “much weaker effect”. Also, in data set [4] (cell medium contained 10% FBS), the “fold shift in IC50 from the ALK enzyme inhibition assay to the cell growth inhibition assay” value is reported as about 200 fold.
Turning to `CCc1cc2c(cc1N1CCC(N3CCOCC3)CC1)C(C)(C)c1[nH]c3cc(C#N)ccc3c1C2=O` [Alectinib, 9-ethyl-6,6-dimethyl-8-(4-morpholino-1-piperidyl)-11-oxo-5H-benzo[b]carbazole-3-carbonitrile, reference compound], the “human plasma protein binding over the range of concentration investigated” value in data set [5] (human plasma, all concentrations investigated) is “higher than 99%”. In addition, the fraction unbound at 24 h, 0.1 μg/mL in data set [5] (male, human, plasma, human plasma, 0.1 μg/mL, 37 °C 24 h dialysis, mean ± SD of triplicates) is 0.004. Also, in data set [5] (setting [9]), the fraction unbound at 24 h, 1 μg/mL was 0.003. Also, in data set [5] (male, human, plasma, human plasma, 10 μg/mL, 37 °C 24 h dialysis, mean ± SD of triplicates), the fraction unbound at 24 h, 10 μg/mL is 0.003. Besides, in data set [5] (male), the recovery at 24 h was determined as 85 ± 1.7%. For the same molecule, in data set [2] (human ADME study, 600 mg oral [14C]alectinib), the Cmax in plasma was 175 ng/mL. The “recovery of radioactivity within excretion in faeces” value in data set [2] (human, up to 168 h post-dose, % of dose administered) is on record as 97.8%. Besides, the “recovery of radioactivity within excretion in urine” value in data set [2] (human, up to 168 h post-dose) is 0.5%. Further, the logD in data set [6] is recorded as 1.96.
